According to ChEMBL document CHEMBL1142743, “8-Piperazinyl-2,3-dihydropyrrolo[3,2-g]isoquinolines: potent, selective, orally bioavailable 5-HT1 receptor ligands” (Bioorg Med Chem Lett, 2005):
Activity calls are given as the source filed them. The calls are words filed in the database; no cut-off is given here.

Columns and labels:
[1] = Oral bioavailability in rat; format: ADME, organism-based; conditions: in vivo
[2] = Brain/blood concentration after administration in rat; format: ADME, tissue-based; conditions: read-out: Brain/Blood concentration
[3] = biological target: T1, 5-hydroxytryptamine receptor 1A (Homo sapiens) (UniProt P08908); experiment: Partial agonist efficacy in the 5-HT1A GTPgammaS functional assay; Expressed as fraction of 5-HT efficacy
T1 sequence (whole entry): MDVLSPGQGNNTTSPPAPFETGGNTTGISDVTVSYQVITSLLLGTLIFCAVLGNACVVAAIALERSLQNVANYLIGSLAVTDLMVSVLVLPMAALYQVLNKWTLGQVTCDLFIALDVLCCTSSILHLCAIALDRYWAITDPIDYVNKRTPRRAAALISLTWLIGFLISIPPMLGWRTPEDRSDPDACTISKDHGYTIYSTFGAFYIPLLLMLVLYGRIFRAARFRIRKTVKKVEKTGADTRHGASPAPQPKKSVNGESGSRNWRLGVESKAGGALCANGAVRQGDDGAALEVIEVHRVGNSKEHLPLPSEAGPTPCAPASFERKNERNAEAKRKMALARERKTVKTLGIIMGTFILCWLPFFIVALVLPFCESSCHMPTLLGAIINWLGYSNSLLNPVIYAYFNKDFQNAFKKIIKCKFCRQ

[4] = biological target: T2, 5-hydroxytryptamine receptor 1B (Homo sapiens, UniProt P28222); experiment: Partial agonist efficacy in the 5-HT1B GTPgammaS functional assay; Expressed as fraction of 5-HT efficacy
[5] = biological target: T3, 5-hydroxytryptamine receptor 1A (Homo sapiens, UniProt P08908); experiment: Mean binding affinity towards 5-hydroxytryptamine 1A receptor using [3H]-5-HT or [3H]8-OH-DPAT as the radioligand
T3 sequence (P08908 whole entry): T1 sequence (whole entry)

[6] = biological target: T2, 5-hydroxytryptamine receptor 1B; experiment: Mean binding affinity towards 5-hydroxytryptamine 1B receptor using [3H]5-HT or [3H]-8-OH-DPAT as the radioligand
[7] = biological target: 5-hydroxytryptamine receptor 1D (Homo sapiens, UniProt P28221); experiment: Mean binding affinity towards 5-hydroxytryptamine 1D receptor using [3H]5-HT or [3H]-8-OH-DPAT as the radioligand
[8] = In vivo clearance after administration in rat; format: ADME, organism-based; conditions: blood, read-out: CLb
[9] = biological target: T1, 5-hydroxytryptamine receptor 1A (Homo sapiens); experiment: Partial agonist efficacy in the 5-HT1A GTPgammaS functional assay; Expressed as fraction of 5-HT efficacy; Inactive

T2 sequence (P28222 whole entry): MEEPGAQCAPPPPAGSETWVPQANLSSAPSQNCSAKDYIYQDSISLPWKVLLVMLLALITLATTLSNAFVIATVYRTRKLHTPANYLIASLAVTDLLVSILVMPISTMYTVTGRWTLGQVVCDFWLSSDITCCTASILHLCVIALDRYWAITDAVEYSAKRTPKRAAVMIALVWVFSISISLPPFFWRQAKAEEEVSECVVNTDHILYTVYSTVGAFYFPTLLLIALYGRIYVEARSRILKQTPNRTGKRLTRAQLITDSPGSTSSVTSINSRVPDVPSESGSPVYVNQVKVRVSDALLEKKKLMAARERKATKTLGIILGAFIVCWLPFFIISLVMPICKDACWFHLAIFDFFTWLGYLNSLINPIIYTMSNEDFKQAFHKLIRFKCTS
Sequence of 5-hydroxytryptamine receptor 1D (P28221 whole entry): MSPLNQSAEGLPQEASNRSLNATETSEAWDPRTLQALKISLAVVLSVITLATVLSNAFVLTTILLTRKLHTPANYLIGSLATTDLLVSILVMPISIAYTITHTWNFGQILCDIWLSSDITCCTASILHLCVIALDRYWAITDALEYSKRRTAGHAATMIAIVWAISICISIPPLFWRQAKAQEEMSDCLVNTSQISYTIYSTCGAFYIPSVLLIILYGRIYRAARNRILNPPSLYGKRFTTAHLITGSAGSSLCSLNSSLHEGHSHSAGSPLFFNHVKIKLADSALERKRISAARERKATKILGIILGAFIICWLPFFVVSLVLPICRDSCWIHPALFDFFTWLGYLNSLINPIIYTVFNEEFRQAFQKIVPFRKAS

In the case of `CCc1c(C(=O)N2CCc3cc4ccnc(N5CCN(C)CC5)c4cc32)cnn1-c1ccc(C#N)cc1`, the bioavailability [1] is reported as 50%, the Kp [2] is reported as 0.5 and the Efficacy [3] is reported as 0.33. The Efficacy [4] was 0.47, the Ki [5] was 1.26 nM and the Ki [6] was 1 nM. The Ki [7] was 0.631 nM and the clearance [8] was 28 mL/min/kg.

`CN1CCN(c2nccc3cc4c(cc23)N(C(=O)c2ccc(Cl)cc2)CC4)CC1` gave a Kp [2] of 1.3, an Efficacy [3] of 0.69 and an Efficacy [4] of 0.75. It also gave a Ki [5] of 0.794 nM, a Ki [6] of 0.316 nM and a Ki [7] of 0.501 nM. The clearance [8] was 29 mL/min/kg.

`Cc1nc(C)c(C(=O)N2CCc3cc4ccnc(N5CCN(C)CC5)c4cc32)o1` gave a bioavailability [1] of 55%, a Kp [2] of 0.5 and a Ki [5] of 6.31 nM. For the same compound, the Ki [6] was 15.8 nM, the Ki [7] was 2.51 nM and the clearance [8] was 39 mL/min/kg.

`CN1CCN(c2nccc3cc4c(cc23)N(C(=O)c2cnn(C)c2C(F)(F)F)CC4)CC1` gave a Kp [2] of 0.1, a Ki [5] of 6.31 nM and a Ki [6] of 5.01 nM. For the same compound, the Ki [7] was 10 nM and the clearance [8] was 48 mL/min/kg.

`CCc1c(C(=O)N2CCc3cc4ccnc(N5CCN6CCC[C@H]6C5)c4cc32)cnn1-c1ccc(C#N)cc1` showed a Ki [5] of 1.26 nM, a Ki [6] of 2 nM and a Ki [7] of 3.16 nM.

`CN1CCN(c2cc3c(cc2Cl)CCN3C(=O)Nc2ccc(-c3ccncc3)c3ccccc23)CC1` showed a Ki [5] of 10 nM, a Ki [6] of 7.94 nM and a Ki [7] of 2 nM.

In the case of `CN1CCN(c2nccc3cc4c(cc23)N(C(=O)c2ccc(C#N)cc2)CC4)CC1`, the Kp [2] is reported as 0.7, the Efficacy [3] is reported as 0.84 and the Efficacy [4] is reported as 0.86. For the same compound, the Ki [5] was 1 nM, the Ki [6] was 0.501 nM and the Ki [7] was 0.794 nM. For the same compound, the clearance [8] was 19 mL/min/kg.

Compound `CCc1c(C(=O)N2CCc3cc4ccnc(N5CCN6CCC[C@@H]6C5)c4cc32)cnn1-c1ccc(C#N)cc1` has a Ki [5] of 1.58 nM, a Ki [6] of 1 nM and a Ki [7] of 1 nM.

Work on `Cc1cc(C(=O)N2CCc3cc4ccnc(N5CCN(C)CC5)c4cc32)c(C(F)(F)F)o1` yielded a Ki [5] of 5.01 nM, a Ki [6] of 2 nM and a Ki [7] of 7.94 nM.

In the case of `Cc1c(C(=O)N2CCc3cc4ccnc(N5CCN(C)CC5)c4cc32)cnn1-c1ccccc1`, the bioavailability [1] is reported as 40%, the Kp [2] is reported as 1.1 and the Efficacy [3] is reported as 0.54. For the same compound, the Efficacy [4] was 0.59, the Ki [5] was 0.631 nM and the Ki [6] was 0.631 nM. The Ki [7] was 0.631 nM and the clearance [8] was 32 mL/min/kg.

In the case of `CN1CCN(c2nccc3cc4c(cc23)N(C(=O)c2cccc3ncccc23)CC4)CC1`, the Kp [2] is reported as 0.2, the Ki [5] is reported as 3.98 nM and the Ki [6] is reported as 0.794 nM. It also gave a Ki [7] of 3.98 nM and a clearance [8] of 75 mL/min/kg.

In the case of `CN1CCN(c2nccc3cc4c(cc23)N(C(=O)c2ccccc2C(F)(F)F)CC4)CC1`, the Efficacy [4] is reported as 0.23, the Efficacy [9] is reported as “inactive” and the Ki [5] is reported as 10 nM. It also gave a Ki [6] of 15.8 nM and a Ki [7] of 15.8 nM.

Compound `CCc1c(C(=O)N2CCc3cc4ccnc(N5CCN(CC)CC5)c4cc32)cnn1-c1ccc(C#N)cc1` has a Ki [5] of 3.16 nM, a Ki [6] of 1.58 nM and a Ki [7] of 2.51 nM.

Work on `CN1CCN(c2nccc3cc4c(cc23)N(C(=O)c2ccccc2Cl)CC4)CC1` yielded an Efficacy [3] of 0.42, an Efficacy [4] of 0.42 and a Ki [5] of 5.01 nM. For the same compound, the Ki [6] was 1.26 nM and the Ki [7] was 2.51 nM.

For `CCc1c(C(=O)N2CCc3cc4ccnc(N5CCNCC5)c4cc32)cnn1-c1ccc(C#N)cc1`, the Ki [5] was 1.26 nM, the Ki [6] was 2.51 nM and the Ki [7] was 2.51 nM.

For `CN1CCN(c2nccc3cc4c(cc23)N(C(=O)c2cnn3ccccc23)CC4)CC1`, the Ki [5] was 0.316 nM, the Ki [6] was 1 nM and the Ki [7] was 1.26 nM.

`CCc1c(C(=O)N2CCc3cc4ccnc(N5CCN(C(C)C)CC5)c4cc32)cnn1-c1ccc(C#N)cc1` gave a Ki [5] of 6.31 nM, a Ki [6] of 3.98 nM and a Ki [7] of 7.94 nM.

In the case of `CN1CCN(c2nccc3cc4c(cc23)N(C(=O)c2ccc(C(F)(F)F)nc2)CC4)CC1`, the Ki [5] is reported as 3.16 nM, the Ki [6] is reported as 0.251 nM and the Ki [7] is reported as 0.501 nM.

Work on `CCc1c(C(=O)N2CCc3cc4ccnc(N5C[C@@H](C)N[C@@H](C)C5)c4cc32)cnn1-c1ccc(C#N)cc1` yielded a Ki [5] of 31.6 nM, a Ki [6] of 7.94 nM and a Ki [7] of 7.94 nM.
